The source of these data is US5840936A, “Aminosterol compounds useful as inhibitors of the sodium/proton exchanger (NHE)” (priority 1995, dated 1998).

Assay [1] deals with Xenopus tadpoles, stage 59-60. Briefly: Xenopus tadpole assay. To be noted: for Tadpole assay, observed effects: 10 μg/ml; for Pharmacologic similarity in tadpole assay: in vivo.
The subject of assay [2] is chick embryo vitelline capillaries. Briefly: Chick embryo vitelline capillary regression assay. The format is in vivo. Also on record: key to Vitelline capillary regression: +: Vascular reactivity; 0: No vascular reactivity; +/-: Equivocal reactivity. Here is the method: Using the chick embryo vitelline capillaries assay, compounds were tested for their ability to induce capillary regression. Each compound was applied in 0.1 ml of 15% Ficol 400 and PBS onto the embryo, and vascular regression was assessed after 60 minutes.
The 3-day chick embryo consists of an embryonic disc from which numerous vessels emerge and return, forming a "FIG. 8"-shaped structure--the embryo in the center with vascular loops extending outward over both poles. […] Following a lag period of around 15 minutes, the constriction of continuity between capillary and secondary vessels, generally on the "venous" side, was observed. Continued pulsatile blood flow progressed, resulting in a "swelling" of the blind tube, followed by a pinching off of the remaining connection and formation of an enclosed vascular sac resembling a "blood island." This process progressed until only the largest vessels remained intact.

A short description of assay [3]: Fasting blood glucose in mice. The assay is classed as in vivo, male CD-1 mice. Here is the method:
To study the effect of steroid administrator or the NHE responsible for secretion of insulin, several of the aminosterols from shark liver were administered to fasting mice. Male CD-1 mice were assigned to one of four treatment groups. Whole blood glucose was tested using glucometer (Lifescan Glucometer II and One Touch test strips). Statistical analysis was via one-way analysis of variance (ANOVA) followed by subsequent Bonferonni's t-test.

The target of the next assay is NHE3. To be noted: cited from earlier work.
The next assay concerns HM. Briefly: HM MTT assay. The assay is classed as cell-based. To be noted: Table II; read-out: HM MTT assay, Minimum Effective Concentration. Background: Tetrazolium dyes change colour on reduction, which living cells bring about.

“Also recorded” adds a separate entry of the source.

For `CC(COS(=O)(=O)O)C(=O)CC[C@@H](C)[C@H]1CC[C@H]2[C@@H]3[C@H](O)C[C@H]4C[C@@H](NCCCNCCCCN)CC[C@]4(C)[C@H]3CC[C@]12C` (single isomer, unassigned) [Compound 1360], the “Tadpole assay, observed effects” value in assay [1] is “Swelling and lysis of certain erythrocytes occurred; also recorded: extensive vasocclusion occurred within 60 minutes throughout the tail”. In assay [2] (1 μg applied), the Vitelline capillary regression stood at 0. Moreover, the “Effect on chick embryo vessels” value in assay [2] (3- to 5-day chick embryo) is reported as “the blood circulating through the embryonic vessels exhibited a brighter red color, reflecting a higher degree of oxygenation”.
For `CC(C)C(CO)(CC[C@@H](C)[C@H]1CC[C@H]2[C@@H]3[C@H](O)C[C@H]4C[C@@H](NCCCNCCCCN)CC[C@]4(C)[C@H]3CC[C@]12C)OS(=O)(=O)O` (single isomer, unassigned) [Compound 1437], the “Tadpole assay, observed effects” value in assay [1] is “Epithelium covering the embryonic portions of the animal, such as the tail and antennae, began to slough off in sheets; also recorded: the larval skin was observed to shed off in a sheet”. Besides, in assay [3] (i.v., 1436 in D5W, 1437 in water), the “Hyperglycemia” value is recorded as “caused hyperglycemia in mice”. For the same compound, in assay [3] (total dose 20 mg/kg i.v. (2 × 10 mg/kg), 30 min. after 2d dose), the “Fasting Blood Glucose Mean ± SEM” value was 82 ± 15.3 mg/dL.
In general, Ki refers to the equilibrium dissociation constant of an inhibitor or competing ligand from its target. Regarding `N=C(N)NC(=O)c1nc(Cl)c(N)nc1N` [Amiloride], the Ki at NHE3 was 100 µM.
Take `CC(C)CCC[C@@H](C)[C@H]1CC[C@H]2[C@@H]3CC[C@H]4C[C@@H](NCCCNCCCCN)CC[C@]4(C)[C@H]3CC[C@]12C` [Compound 303]: the Vitelline capillary regression in assay [2] (1 μg applied) turned out to be 0.
Same read-out and setting: for `C[C@H](CCC(=O)O)[C@H]1CC[C@H]2[C@@H]3CC[C@H]4C[C@H](NCCCNCCCCN)CC[C@]4(C)[C@H]3CC[C@]12C` [Compound 318] the value was 0.
For `CC(C)CCC[C@@H](C)[C@H]1CC[C@H]2[C@@H]3[C@H](O)C[C@H]4C[C@@H](N)CC[C@]4(C)[C@H]3CC[C@]12C` [Compound 364], the Vitelline capillary regression in assay [2] (0.001 μg applied) is recorded as 0; in assay [2] (0.01 μg applied), 0; in assay [2] (0.1 μg applied), 0; in assay [2] (1 μg applied), “+”; in assay [2] (10 μg applied), “+”. The “Chick embryo diss. assay, Minimum Effective Concentration” value in assay [2] (Table II) was determined as 1 µg.
For the compound `CC(C)CCC[C@@H](C)[C@H]1CC[C@H]2[C@@H]3[C@H](O)C[C@H]4C[C@H](NCCCNCCCCN)CC[C@]4(C)[C@H]3CC[C@]12C` [Compound 370], in assay [1], the “Pharmacologic similarity in tadpole assay” value (from here on “Pharmacologic similarity”) was “pharmacologic activity similar to that seen for FX 3”.
As to `CC(C)CCC[C@@H](C)[C@H]1CC[C@H]2[C@@H]3[C@H](O)C[C@H]4C[C@@H](NCCCNCCCCN)CC[C@]4(C)[C@H]3CC[C@]12C` [Compound 371], the “Pharmacologic similarity” value in assay [1] is given as “effects like those produced by compound 1436”. Besides, the Vitelline capillary regression in assay [2] (0.001 μg applied) was 0; in assay [2] (0.01 μg applied), 0; in assay [2] (0.1 μg applied) it was 0; in assay [2] (1 μg applied), “+/-”; in assay [2] (10 μg applied), “+”.
As for `C[C@H](CCC(=O)O)[C@H]1CC[C@H]2[C@@H]3[C@H](O)C[C@H]4C[C@@H](NCCCNCCCCN)CC[C@]4(C)[C@H]3CC[C@]12C` [Compound 381], the Vitelline capillary regression in assay [2] (1 μg applied) worked out at 0.
`C[C@H](CCC(=O)O)[C@H]1CC[C@H]2[C@@H]3[C@H](O)C[C@H]4C[C@H](NCCCNCCCCN)CC[C@]4(C)[C@H]3CC[C@]12C` [Compound 382]: the Vitelline capillary regression in assay [2] (0.001 μg applied) is reported as 0; in assay [2] (0.01 μg applied), 0; in assay [2] (0.1 μg applied), 0; in assay [2] (1 μg applied), “+”; in assay [2] (10 μg applied), “+”.
In the case of `COC(=O)CC[C@@H](C)[C@H]1CC[C@H]2[C@@H]3[C@H](O)C[C@H]4C[C@@H](NCCCNCCCCNCCCN)CC[C@]4(C)[C@H]3CC[C@]12C` [Compound 396], the Vitelline capillary regression is recorded as 0 in assay [2] (0.001 μg applied), 0 in assay [2] (0.01 μg applied), 0 in assay [2] (0.1 μg applied) and “+” in assay [2] (1 μg applied).
As to `COC(=O)CC[C@@H](C)[C@H]1CC[C@H]2[C@@H]3[C@H](O)C[C@@H]4C[C@@H](NCCN)CC[C@]4(C)[C@H]3CC[C@]12C` [Compound 409], in assay [1], the “Pharmacologic similarity” value is “functionally similar to compound 1437”. The Vitelline capillary regression in assay [2] (1 μg applied) is listed as 0.
Take `COC(=O)CC[C@@H](C)[C@H]1CC[C@H]2[C@@H]3[C@H](O)C[C@@H]4C[C@H](NCCN)CC[C@]4(C)[C@H]3CC[C@]12C` [Compound 410]: the “Pharmacologic similarity” value in assay [1] was “functionally similar to compound 1437”. Further, the Vitelline capillary regression in assay [2] (0.001 μg applied) is on record as 0; in assay [2] (0.01 μg applied), “+/-”; in assay [2] (0.1 μg applied) it was “+/-”; in assay [2] (1 μg applied), “+”. The minimal effective concentration in the assay with HM is 2.6 µg/mL.
Turning to `COC(=O)CC[C@@H](C)[C@H]1CC[C@H]2[C@@H]3[C@H](O)C[C@@H]4C[C@@H](NCCCNCCCCNCCCN)CC[C@]4(C)[C@H]3CC[C@]12C` [Compound 411], the Vitelline capillary regression in assay [2] (0.001 μg applied) is recorded as 0; in assay [2] (0.01 μg applied), 0; in assay [2] (0.1 μg applied) it was 0; in assay [2] (1 μg applied), “+/-”.
Turning to `C[C@H](CCC(=O)O)[C@H]1CC[C@H]2[C@@H]3[C@H](O)C[C@@H]4C[C@H](NCCCNCCCCNCCCN)CC[C@]4(C)[C@H]3CC[C@]12C` [Compound 412], the “Pharmacologic similarity” value in assay [1] is reported as “pharmacologic activity similar to that seen for FX 3”. Besides, the Vitelline capillary regression in assay [2] (0.001 μg applied) is listed as 0; in assay [2] (0.01 μg applied) it was 0; in assay [2] (0.1 μg applied) it was 0; in assay [2] (1 μg applied), “+”. Besides, the minimal effective concentration in the assay with HM is 18.1 µg/mL.
Turning to `C[C@H](CCC(=O)O)[C@H]1CC[C@H]2[C@@H]3[C@H](O)C[C@@H]4C[C@@H](NCCCNCCCCNCCCN)CC[C@]4(C)[C@H]3CC[C@]12C` [Compound 413], the “Pharmacologic similarity” value in assay [1] was “effects like those produced by compound 1436”. Also, the Vitelline capillary regression in assay [2] (1 μg applied) stood at 0.
In the same order, the values of `C[C@H](CCC(=O)O)[C@H]1CC[C@H]2[C@@H]3[C@H](O)C[C@@H]4C[C@H](NCCN)CC[C@]4(C)[C@H]3CC[C@]12C` [Compound 414] are “potencies comparable to that of Fraction 1” and 0.
`C[C@H](CCC(=O)O)[C@H]1CC[C@H]2[C@@H]3[C@H](O)C[C@@H]4C[C@@H](NCCN)CC[C@]4(C)[C@H]3CC[C@]12C` [Compound 415]: the Vitelline capillary regression is on record as 0 in assay [2] (0.001 μg applied), “+” in assay [2] (0.01 μg applied), “+” in assay [2] (0.1 μg applied) and “+” in assay [2] (1 μg applied).
On to `COC(=O)CC[C@@H](C)[C@H]1CC[C@H]2[C@@H]3CC[C@@H]4C[C@H](NCCN)CC[C@]4(C)[C@H]3C[C@H](O)[C@]12C` [Compound 416], for which the “Pharmacologic similarity” value in assay [1] is recorded as “functionally similar to compound 1437”. The minimal effective concentration in the assay on HM is 2.4 µg/mL.
`COC(=O)CC[C@@H](C)[C@H]1CC[C@H]2[C@@H]3C[C@@H](O)[C@H]4C[C@H](NCCN)CC[C@]4(C)[C@H]3CC[C@]12C` [Compound 431]: the “Pharmacologic similarity” value in assay [1] is on record as “functionally similar to compound 1437”.
On the same count and under the same terms, the same measure for `COC(=O)CC[C@@H](C)[C@H]1CC[C@H]2[C@@H]3C[C@@H](O)[C@H]4C[C@@H](NCCN)CC[C@]4(C)[C@H]3CC[C@]12C` [Compound 432]: “functionally similar to compound 1437”; for `C[C@H](CCC(=O)O)[C@H]1CC[C@H]2[C@@H]3C[C@@H](O)[C@H]4C[C@@H](NCCN)CC[C@]4(C)[C@H]3CC[C@]12C` [Compound 433]: “functionally similar to compound 1437”.
On to `COC(=O)CC[C@@H](C)[C@H]1CC[C@H]2[C@@H]3CC[C@H]4C[C@H](NCCCNCCCCNCCCN)CC[C@]4(C)[C@H]3CC[C@]12C` [Compound 458], for which the “Pharmacologic similarity” value in assay [1] is reported as “pharmacologic activity similar to that seen for FX 3”. In addition, the minimal effective concentration with HM worked out at 6.8 µg/mL.
In the same order, the values of `COC(=O)CC[C@@H](C)[C@H]1CC[C@H]2[C@@H]3CC[C@H]4C[C@@H](NCCCNCCCCNCCCN)CC[C@]4(C)[C@H]3CC[C@]12C` [Compound 459] are “pharmacologic activity similar to that seen for FX 3” and 5 µg/mL.
As for `COC(=O)CC[C@@H](C)[C@H]1CC[C@H]2[C@@H]3C[C@@H](O)[C@H]4C[C@H](NCCCNCCCCNCCCN)CC[C@]4(C)[C@H]3CC[C@]12C` [Compound 465], the “Pharmacologic similarity” value in assay [1] is on record as “pharmacologic activity similar to that seen for FX 3”.
`COC(=O)CC[C@@H](C)[C@H]1CC[C@H]2[C@@H]3C[C@@H](O)[C@H]4C[C@@H](NCCCNCCCCNCCCN)CC[C@]4(C)[C@H]3CC[C@]12C` [Compound 466]: in assay [1], the “Pharmacologic similarity” value is listed as “pharmacologic activity similar to that seen for FX 3”.
Same read-out and setting: the same measure for `CC(C)CCC[C@@H](C)[C@H]1CC[C@H]2[C@@H]3[C@H](O)C[C@H]4C[C@H](N)CC[C@]4(C)[C@H]3CC[C@]12C` [Compound 1363]: “potencies comparable to that of Fraction 1”.
